Results published in patent US20090181963A1, “3H-[1,2,3]TRIAZOLO[4,5-D]PYRIMIDINE COMPOUNDS, THEIR USE AS mTOR KINASE AND PI3 KINASE INHIBITORS, AND THEIR [sequence]” (Wyeth, priority 2008, published 2009).
Structures can show the parent of a compound that is named as a salt. Where two headings read alike, the source gives them in different places. Each block holds one compound with its values, some of them ahead of it.

How the values were obtained:
[1] = test system: human tumor xenograft models; details: cited from earlier work
[2] = biological target: mTOR enzymes (Homo sapiens, UniProt P42345); details: read-out: IC50 mTOR enzymes; reported in the literature; cited from earlier work
[3] = biological target: PI3 Kinase α (Homo sapiens, UniProt P42336); experiment: Fluorescence polarization assay for PI3K (PI3 Kinase α); format: biochemical; details: diC8-PI(4,5)P2 substrate, 25 μM ATP, one hour at 25° C.
[4] = biological target: PI3 Kinase γ (Homo sapiens, UniProt P48736); experiment: Fluorescence polarization assay for PI3K (PI3 Kinase γ); format: biochemical; details: diC8-PI(4,5)P2 substrate, 25 μM ATP, one hour at 25° C.
[5] = test system: PI3K; details: reported, Raynaud et al 2007; read-out: IC50 PI3K (second named); cited from earlier work

Chain of PI3 Kinase α (P42336 whole entry): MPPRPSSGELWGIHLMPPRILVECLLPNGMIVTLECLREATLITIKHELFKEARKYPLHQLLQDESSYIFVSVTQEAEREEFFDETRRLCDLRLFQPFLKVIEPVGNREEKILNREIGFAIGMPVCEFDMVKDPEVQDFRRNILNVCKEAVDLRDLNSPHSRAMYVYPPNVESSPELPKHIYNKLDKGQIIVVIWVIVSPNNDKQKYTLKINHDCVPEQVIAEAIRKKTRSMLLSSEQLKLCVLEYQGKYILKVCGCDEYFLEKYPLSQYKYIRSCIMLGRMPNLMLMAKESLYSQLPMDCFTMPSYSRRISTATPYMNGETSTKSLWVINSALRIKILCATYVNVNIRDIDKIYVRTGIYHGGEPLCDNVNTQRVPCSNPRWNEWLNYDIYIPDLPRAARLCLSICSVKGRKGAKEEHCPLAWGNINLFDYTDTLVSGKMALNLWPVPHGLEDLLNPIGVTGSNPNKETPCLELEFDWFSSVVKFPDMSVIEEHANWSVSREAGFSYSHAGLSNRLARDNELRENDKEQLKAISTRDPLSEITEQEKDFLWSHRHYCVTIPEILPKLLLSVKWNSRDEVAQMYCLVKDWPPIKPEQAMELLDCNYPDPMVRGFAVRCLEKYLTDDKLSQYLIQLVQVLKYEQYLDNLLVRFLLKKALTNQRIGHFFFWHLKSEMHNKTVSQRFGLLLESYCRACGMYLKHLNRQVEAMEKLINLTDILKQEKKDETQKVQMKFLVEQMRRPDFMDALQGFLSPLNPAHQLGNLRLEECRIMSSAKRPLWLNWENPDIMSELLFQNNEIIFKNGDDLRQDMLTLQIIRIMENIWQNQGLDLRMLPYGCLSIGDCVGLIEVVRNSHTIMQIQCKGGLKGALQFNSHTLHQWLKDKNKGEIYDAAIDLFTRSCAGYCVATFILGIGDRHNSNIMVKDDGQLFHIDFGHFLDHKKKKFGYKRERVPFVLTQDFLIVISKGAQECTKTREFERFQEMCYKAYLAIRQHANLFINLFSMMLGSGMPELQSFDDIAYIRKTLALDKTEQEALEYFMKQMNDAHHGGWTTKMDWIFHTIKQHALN
Chain of PI3 Kinase α (P27986 whole entry partner): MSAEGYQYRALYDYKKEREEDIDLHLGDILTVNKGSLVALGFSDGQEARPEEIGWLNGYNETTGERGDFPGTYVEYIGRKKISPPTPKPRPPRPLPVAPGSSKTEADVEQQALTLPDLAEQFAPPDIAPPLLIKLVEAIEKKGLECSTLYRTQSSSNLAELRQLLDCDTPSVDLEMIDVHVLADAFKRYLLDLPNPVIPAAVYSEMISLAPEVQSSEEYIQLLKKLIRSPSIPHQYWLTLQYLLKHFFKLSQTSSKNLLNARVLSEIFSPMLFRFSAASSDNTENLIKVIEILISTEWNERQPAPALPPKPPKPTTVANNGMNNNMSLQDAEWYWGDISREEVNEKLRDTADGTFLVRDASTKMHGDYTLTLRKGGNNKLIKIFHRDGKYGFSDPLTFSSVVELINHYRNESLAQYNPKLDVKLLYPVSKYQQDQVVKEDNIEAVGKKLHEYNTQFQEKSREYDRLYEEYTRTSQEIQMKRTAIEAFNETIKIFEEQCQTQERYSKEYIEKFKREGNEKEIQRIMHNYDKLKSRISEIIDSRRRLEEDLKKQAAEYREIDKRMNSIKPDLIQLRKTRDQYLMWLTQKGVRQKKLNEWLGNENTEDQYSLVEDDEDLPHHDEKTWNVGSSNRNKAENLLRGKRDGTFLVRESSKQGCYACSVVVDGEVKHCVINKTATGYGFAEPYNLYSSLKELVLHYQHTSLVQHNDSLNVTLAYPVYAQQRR
Chain of PI3 Kinase γ (P48736 whole entry): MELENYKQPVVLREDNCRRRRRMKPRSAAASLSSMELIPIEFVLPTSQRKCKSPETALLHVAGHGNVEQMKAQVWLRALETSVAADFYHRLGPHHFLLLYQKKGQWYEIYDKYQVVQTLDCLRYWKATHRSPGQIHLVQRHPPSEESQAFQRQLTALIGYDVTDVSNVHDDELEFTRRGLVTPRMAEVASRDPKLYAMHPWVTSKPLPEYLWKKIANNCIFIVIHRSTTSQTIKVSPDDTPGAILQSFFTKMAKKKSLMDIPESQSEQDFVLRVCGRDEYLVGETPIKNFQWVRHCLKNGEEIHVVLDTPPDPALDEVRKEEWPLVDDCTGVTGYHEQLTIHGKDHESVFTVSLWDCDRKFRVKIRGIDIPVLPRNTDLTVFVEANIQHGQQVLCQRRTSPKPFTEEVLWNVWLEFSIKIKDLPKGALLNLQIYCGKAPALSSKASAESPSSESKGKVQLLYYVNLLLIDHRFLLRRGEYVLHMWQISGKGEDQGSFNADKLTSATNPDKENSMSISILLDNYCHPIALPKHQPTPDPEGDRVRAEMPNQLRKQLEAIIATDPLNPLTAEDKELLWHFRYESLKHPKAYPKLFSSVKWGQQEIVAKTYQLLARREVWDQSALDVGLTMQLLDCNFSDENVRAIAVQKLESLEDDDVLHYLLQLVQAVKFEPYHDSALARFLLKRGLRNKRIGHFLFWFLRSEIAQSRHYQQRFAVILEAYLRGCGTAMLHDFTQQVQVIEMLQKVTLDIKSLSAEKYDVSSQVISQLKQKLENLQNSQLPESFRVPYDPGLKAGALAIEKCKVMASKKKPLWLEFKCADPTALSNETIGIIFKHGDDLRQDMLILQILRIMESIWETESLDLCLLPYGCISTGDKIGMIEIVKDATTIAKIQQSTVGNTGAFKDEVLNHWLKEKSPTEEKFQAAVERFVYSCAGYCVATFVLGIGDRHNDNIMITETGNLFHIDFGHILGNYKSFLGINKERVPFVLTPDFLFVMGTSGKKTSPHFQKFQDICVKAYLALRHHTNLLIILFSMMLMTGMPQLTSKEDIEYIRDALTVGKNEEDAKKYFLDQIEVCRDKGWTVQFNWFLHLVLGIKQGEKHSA

Compound: CO[C@H]1C[C@@H]2CC[C@@H](C)[C@@](O)(O2)C(=O)C(=O)N2CCCC[C@H]2C(=O)O[C@H]([C@H](C)C[C@@H]2CC[C@@H](OC(=O)C(C)(CO)CO)[C@H](OC)C2)CC(=O)[C@H](C)/C=C(\C)[C@@H](O)[C@@H](OC)C(=O)[C@H](C)C[C@H](C)/C=C/C=C/C=C/1C [Torisel]
activity in xenograft mouse model ([1]; NOS/SCID xenograft mouse model of acute lymphoblastic leukemia): active

Compound: FC(F)c1nc2ccccc2n1-c1nc(N2CCOCC2)nc(N2CCOCC2)n1 [ZSTK474, 2-(2-difluoromethylbenzoimidazol-1-yl)-4,6-dimorpholino-1,3,5-triazine]
tumor growth in mouse human xenograft cancer models ([1]; chronic oral administration, 400 mg/kg, A549, PC-3, WiDr): completely inhibited growth
IC50 [2]: > 10000 nM

IC50 [3]: 4.5 nM
IC50 [4]: 25.5 nM
melting point: 272 °C
Compound: Cn1nnc2c(N3CCOCC3)nc(-c3ccc(NC(=O)Nc4ccsc4)cc3)nc21 [Example 201, 1-[4-(3-methyl-7-morpholin-4-yl-3H-[1,2,3]triazolo[4,5-d]pyrimidin-5-yl)phenyl]-3-(3-thienyl)urea]

melting point: 332 °C
Compound: O=C(Nc1ccncc1)Nc1ccc(-c2nc(N3CCOCC3)c3nnn(C4CCOCC4)c3n2)cc1 (as salt: HCl) [Example 198, 1-{4-[7-morpholin-4-yl-3-(tetrahydro-2H-pyran-4-yl)-3H-[1,2,3]triazolo[4,5-d]pyrimidin-5-yl]phenyl}-3-pyridin-4-ylurea]

Compound: Cn1c(=O)n(-c2ccc(C(C)(C)C#N)cc2)c2c3cc(-c4cnc5ccccc5c4)ccc3ncc21 [NVP-BEZ-235, 2-methyl-2-(4-(3-methyl-2-oxo-8-(quinolin-3-yl)-2,3-dihydro-1H-imidazo[4,5-c]quinolin-1-yl)phenyl)propanenitrile]
activity in human tumor xenograft models ([1]; prostrate (PC-3) and glioblastoma (U-87)): demonstrated activity

Compound: Oc1cccc(-c2nc(N3CCOCC3)c3oc4ncccc4c3n2)c1 [PI103, 3-(4-(4-morpholinyl)pyrido[3′,2′:4,5]furo[3,2-d]pyrimidin-2-yl)phenol]
activity in human tumor xenograft models ([1]; I.P. dosing in mice, U87MG, PC3, MDA-MB-468, MDA-MB-435, HCT 116, SKOV3, IGROV-1): demonstrated activity

IC50 [3]: 118 nM
IC50 [4]: 938 nM
Compound: O=C(NCc1ccco1)c1ccc(Cn2nnc3c(N4CCOCC4)nc(-c4cccc(O)c4)nc32)cc1 [Example 230, N-(2-furylmethyl)-4-{[5-(3-hydroxyphenyl)-7-morpholin-4-yl-3H-[1,2,3]triazolo[4,5-d]pyrimidin-3-yl]methyl}benzamide]

IC50 [3]: 3 nM
IC50 [4]: 34.5 nM
Compound: CC(C)n1nnc2c(N3CCOCC3)nc(-c3ccc(NC(=O)Nc4ccc(CO)cc4)cc3)nc21 [Example 84, 1-(4-Hydroxymethyl-phenyl)-3-[4-(3-isopropyl-7-morpholin-4-yl-3H-[1,2,3]triazolo[4,5-d]pyrimidin-5-yl)-phenyl]-urea]
